In publication PMC6349357, “Computational and experimental analysis of bioactive peptide linear motifs in the integrin adhesome” (PLoS ONE, 2019):

Columns and labels:
[1] = system: TRAP-activated platelets; assay: Inhibition of TRAP-induced platelet aggregation after pre-incubation with peptide; assay type: cell-based, human (healthy volunteers); settings: for Aggregation after TRAP activation, donor a: replicate donor a; for Aggregation after TRAP activation, donor a / Aggregation after TRAP activation, donor b / Aggregation after TRAP activation, donor c / Aggregation after TRAP activation, donor d / Aggregation after TRAP activation, donor e: pal 20 μM, tat 50 μM; for Aggregation after TRAP activation, donor b: replicate donor b; for Aggregation after TRAP activation, donor c: replicate donor c; for Aggregation after TRAP activation, donor d: replicate donor d; for Aggregation after TRAP activation, donor e: replicate donor e; for Summary of effects of SDC4-derived palmitylated peptides and scrambled controls, 20μM: S2 Table B / S2 Fig, activation of resting platelets and inhibition of aggregation induced by 4 μM TRAP, in words; for Inhibition, donor 20_08_13: replicate 20_08_13; for Inhibition, donor 14_06_13: replicate 14_06_13; for Inhibition, donor 18_06_13: replicate 18_06_13; for Inhibition, donor 20_06_13: replicate 20_06_13; for Aggregation (inhibition effects of syndecan-derived peptides): S2 Table A, n=6
Experimental: (§1) Blood was drawn from healthy volunteers into a syringe containing a final volume of 15% Acid Citrate Dextrose (ACD). The blood/ACD mixture was then aliquoted into 15 ml Cellstar tubes, at volumes of 5ml per tube, and centrifuged at 150 rcf for 10 minutes to obtain platelet rich plasma (PRP). PRP was then transferred to a 50ml tube using a pipette. The pH was then adjusted to 6.5. Prostaglandin (PGE1) was then added with a final concentration of 1μM. The PRP was then centrifuged at 750 rcf. After centrifugation the platelet poor plasma (PPP) was discarded and the pellet was resuspended in buffer A (6 mM dextrose, 130 mM NaCl, 9 mM NaHCO3, 10 mM sodium citrate, 10 mM Tris base, 3 mM KCl, 0.81 mM KH2PO4 and 0.9 mM MgCl26H2O, pH 7.4). A platelet concentration of 3x10^5/μl or 1x10^6/μl was obtained by dilution depending on the experiment in which they were used. Platelets were left to rest for 45 minutes and supplemented with 1.8mM calcium chloride prior to use.
(§2) A platelet concentration of 3x10^5 /μl was used when performing standard aggregations and a concentration of 1x10^6 /μl was used for sample preparation for western blot analysis. The extent of platelet aggregation was measured by quantifying the optical density of the samples using the Bio-Data PAP-8 aggregometer (platelet aggregation profiler, Horsham, PA, USA). A temperature of 37°C was maintained and samples were stirred using magnets spinning at 1100 rpm. 200 μl of washed platelets was added to each aggregation tube. Different volumes of buffer, peptide and TRAP were added to achieve the desired concentrations. Peptide/buffer was added to each well after two minutes. TRAP, with a final concentration depending on the experiment, was added 6 minutes later and data was collected for an additional 7 minutes.

[2] = system: resting platelets; assay: Platelet aggregation induced by peptide in resting washed platelets (activation); assay type: cell-based, human (healthy volunteers); settings: for Activation: platelet aggregation in resting platelets after 6 minutes incubation with peptide, pal-peptides 20 μM, tat-peptides 50 μM, optical density, aggregometer, mean, n>=3; for Activation / Activation, donor 20 08 13 / Activation, donor 14 06 13 / Activation, 5μM / Activation, 20μM: unit assumed; for Aggregation before TRAP activation, donor a: replicate donor a; for Aggregation before TRAP activation, donor a / Aggregation before TRAP activation, donor b / Aggregation before TRAP activation, donor c / Aggregation before TRAP activation, donor d / Aggregation before TRAP activation, donor e: pal 20 μM, tat 50 μM; for Aggregation before TRAP activation, donor b: replicate donor b; for Aggregation before TRAP activation, donor c: replicate donor c; for Aggregation before TRAP activation, donor d: replicate donor d; for Aggregation before TRAP activation, donor e: replicate donor e; for Activation, donor 20 08 13: replicate 20_08_13; for Activation, donor 20 08 13 / Activation, donor 22_08_13_DONOR1 / Activation, donor 22_08_13_DONOR2 / Activation, donor 14 06 13 / Activation, donor 18_06_13 / Activation, donor 20_06_13: SDC4 peptides and controls, 20 μM; for Activation, donor 22_08_13_DONOR1: replicate 22_08_13_DONOR1; for Activation, donor 22_08_13_DONOR2: replicate 22_08_13_DONOR2; for Activation, donor 14 06 13: replicate 14_06_13; for Activation, donor 18_06_13: replicate 18_06_13; for Activation, donor 18_06_13 / Activation, donor 20_06_13: in % (unit assumed); for Activation, donor 20_06_13: replicate 20_06_13; for Activation, 5μM / Activation, 20μM: S3 Table, n=3; for Activation, 5μM: peptide 5 μM; for Activation, 20μM: peptide 20 μM
Experimental: as §1, §2

[3] = platelet aggregation induced by 4 μM TRAP in platelets pre-incubated with peptide (low value = inhibition), pal-peptides 20 μM, tat-peptides 50 μM, mean, n>=3
[4] = replicate 22_08_13_DONOR1, peptide 20 μM, TRAP 4 μM
[5] = replicate 22_08_13_DONOR2, peptide 20 μM, TRAP 4 μM
[6] = S3 Table, peptide 5 μM, aggregation after TRAP, n=3
[7] = S3 Table, peptide 20 μM, aggregation after TRAP, n=3

Substance | Summary of effects of SDC4-derived palmitylated peptides and scrambled controls, 20μM [1] | Inhibition, donor 20_08_13 ([1]; peptide 20 μM, TRAP 4 μM) | Platelet aggregation remaining after TRAP (low = inhibition) [1, 4] | Platelet aggregation remaining after TRAP (low = inhibition) [1, 5] | Activation, donor 20 08 13 [2] [%] | Activation, donor 22_08_13_DONOR1 [2] | Activation, donor 22_08_13_DONOR2 [2] | Inhibition, donor 14_06_13 ([1]; peptide 20 μM, TRAP 4 μM) | Inhibition, donor 18_06_13 ([1]; peptide 20 μM, TRAP 4 μM) | Inhibition, donor 20_06_13 ([1]; peptide 20 μM, TRAP 4 μM) | Activation, donor 14 06 13 [2] [%] | Activation, donor 18_06_13 [2] | Activation, donor 20_06_13 [2] | Platelet aggregation remaining after TRAP (low = inhibition) [1, 6] | Platelet aggregation remaining after TRAP (low = inhibition) [1, 7] | Activation, 5μM [2] [%] | Activation, 20μM [2] [%] | also measured
GIESMSQDTEVRSRVVGGS-tat [PTPN1-tat, PTPN1 peptide with C-terminal tat] |  |  |  |  |  |  |  |  |  |  |  |  |  |  |  |  |  | Platelet aggregation remaining after TRAP (low = inhibition) [1, 3]: 77; Aggregation after TRAP activation, donor a ([1]; TRAP 4 μM): 73; Aggregation after TRAP activation, donor b ([1]; TRAP 4 μM): 76; Aggregation after TRAP activation, donor c ([1]; TRAP 4 μM): 83; Aggregation after TRAP activation, donor d ([1]; TRAP 4 μM): 75; Aggregation after TRAP activation, donor e ([1]; TRAP 4 μM): 79; Activation [2]: 3%; Aggregation before TRAP activation, donor a [2]: 3; Aggregation before TRAP activation, donor b [2]: 4; Aggregation before TRAP activation, donor c [2]: 5; Aggregation before TRAP activation, donor d [2]: 4; Aggregation before TRAP activation, donor e [2]: 3
IGLPKKKYK [pal-SDC4_middle Control 2, scrambled control of pal-SDC4_middle, reference compound] | Inhibitor and mild activator | 40 | 19 | 46 | 12 | 17 | 12 |  |  |  |  |  |  |  |  |  |  | 
KIKGPKLKY [pal-SDC4_middle Control 1, scrambled control of pal-SDC4_middle, reference compound] | Inhibitor and mild activator | 8 | 5 | 10 | 5 | 6 | 5 | 8 | 9 | 2 | 4 | 4 | 0 |  |  |  |  | 
KLSQLTSLLSSIE-tat [INPP5D-tat, INPP5D peptide with C-terminal tat] |  |  |  |  |  |  |  |  |  |  |  |  |  |  |  |  |  | Platelet aggregation remaining after TRAP (low = inhibition) [1, 3]: 74; Aggregation after TRAP activation, donor a ([1]; TRAP 4 μM): 70; Aggregation after TRAP activation, donor b ([1]; TRAP 4 μM): 77; Aggregation after TRAP activation, donor c ([1]; TRAP 4 μM): 76; Aggregation after TRAP activation, donor d ([1]; TRAP 4 μM): 75; Aggregation after TRAP activation, donor e ([1]; TRAP 4 μM): 73; Activation [2]: 4%; Aggregation before TRAP activation, donor a [2]: 4; Aggregation before TRAP activation, donor b [2]: 8; Aggregation before TRAP activation, donor c [2]: 2; Aggregation before TRAP activation, donor d [2]: 3; Aggregation before TRAP activation, donor e [2]: 4
MGYRKEDKDKS [pal-SDC4_JM Control 2, scrambled control of pal-SDC4_JM, reference compound] | Inhibitor | 4 | 3 | 14 | 2 | 1 | 2 |  |  |  |  |  |  |  |  |  |  | 
NSDTPPRPDRLPL-tat [PTPN12-tat, PTPN12 peptide with C-terminal tat] |  |  |  |  |  |  |  |  |  |  |  |  |  |  |  |  |  | Platelet aggregation remaining after TRAP (low = inhibition) [1, 3]: 75; Aggregation after TRAP activation, donor a ([1]; TRAP 4 μM): 73; Aggregation after TRAP activation, donor b ([1]; TRAP 4 μM): 76; Aggregation after TRAP activation, donor c ([1]; TRAP 4 μM): 76; Aggregation after TRAP activation, donor d ([1]; TRAP 4 μM): 75; Aggregation after TRAP activation, donor e ([1]; TRAP 4 μM): 78; Activation [2]: 3%; Aggregation before TRAP activation, donor a [2]: 3; Aggregation before TRAP activation, donor b [2]: 4; Aggregation before TRAP activation, donor c [2]: 4; Aggregation before TRAP activation, donor d [2]: 4; Aggregation before TRAP activation, donor e [2]: 3
NTYAFKAKEP [pal-KK-SDC4_tail Control 1, scrambled control of pal-KK-SDC4_tail, reference compound] | No effect | 70 | 76 | 74 | 3 | 1 | 3 |  |  |  |  |  |  |  |  |  |  | 
Pal-KKAPTNEFYA [Pal-KK-SDC4-tail, palmitylated, slightly extended SDC4 tail peptide …] | Inhibitor | 4 | 2 | 12 | 3 | 1 | 1 | 65 | 64 | 71 | 2 | -1 | 2 | 63 | 36 | 2 | 1 | Aggregation after TRAP, peptide alone 1x (A 1x / B 1x) ([1]; TRAP 2 μM after 6 minutes pre-incubation, 4 μM pal-peptides, 10 μM tat-peptides, mean n = 3): 64.67; Aggregation after TRAP, peptide alone 2x (A 2x / B 2x) ([1]; TRAP 2 μM after 6 minutes pre-incubation, double concentration of 4 μM (pal) / 10 μM (tat), mean n = 3): 3
Pal-LGKKPIYKK-APTNEFYA [pal-SDC4-middle U SDC4-tail, palmitylated chimeric peptide of SDC4 middle and tail regions] |  | 6 | 2 | 6 | 4 | 1 | 4 | 5 | 5 | 7 | 3 | 3 | -2 | 63 | 5 | 3 | 2 | Aggregation (inhibition effects of syndecan-derived peptides) ([1]; peptide 20 μM, TRAP 4 μM, mean): 5
Pal-RMKKKDEGSYD-APTNEFYA [pal-SDC4-JM U SDC4-tail, palmitylated chimeric peptide of SDC4 juxtamembrane and tail regions] |  | 70 | 62 | 68 | 3 | 1 | 2 | 75 | 62 | 81 | 3 | 2 | 2 | 63 | 69 | 2 | 2 | Aggregation (inhibition effects of syndecan-derived peptides) ([1]; peptide 20 μM, TRAP 4 μM, mean): 69
Pal-RMKKKDEGSYD-LGKKPIYKK [pal-SDC4-JM U SDC4-middle, palmitylated chimeric peptide of SDC4 juxtamembrane and middle regions] |  | 12 | 8 | 14 | 6 | 6 | 7 | 26 | 9 | 47 | 0 | 2 | 1 | 61 | 19 | 2 | 4 | Aggregation (inhibition effects of syndecan-derived peptides) ([1]; peptide 20 μM, TRAP 4 μM, mean): 19
